US20260070945A1, “MACROCYCLIC IMMUNOMODULATORS” (Bristol-Myers Squibb Company, priority 2022, published 2026)
*1 amine or outer side, *2 acyl side, *3 side chain or, on linkers, in order; H or OH if unused. Where a SMILES comes first, the peptide text is derived from it. Bridges are numbered along the chain shown (N, C = ends). [ ]: non-standard residue; d: D form. The star is where a group is joined. ξ: configuration not given here. Phe(3-CF3) = N[C@@H](Cc1cccc(C(F)(F)F)c1)C(=O)O; Phe(4-CF3) = N[C@@H](Cc1ccc(C(F)(F)F)cc1)C(=O)O; Ala(morpholin-4-yl) = N[C@@H](CN1CCOCC1)C(=O)O; Phe(4-COOH) = N[C@@H](Cc1ccc(C(=O)O)cc1)C(=O)O; Bip = N[C@@H](Cc1ccc(-c2ccccc2)cc1)C(=O)O; Phe(3-Me) = Cc1cccc(C[C@H](N)C(=O)O)c1; Phe(4-F) = N[C@@H](Cc1ccc(F)cc1)C(=O)O; γGlu = O=C(O)[C@H](CCC(=O)[*:2])N[*:1]; NH(CH2)12COOH = O=C(O)CCCCCCCCCCCCN*; NMeAEEA = CN(CCOCCOCC(=O)[*:2])[*:1]; ξγGlu = O=C(O)C(CCC(=O)[*:2])N[*:1]; Val(3-OH) = CC(C)(O)[C@H](N)C(=O)O; aIle = CC[C@@H](C)[C@H](N)C(=O)O; 4Pal = N[C@@H](Cc1ccncc1)C(=O)O; Cha = N[C@@H](CC1CCCCC1)C(=O)O; Cit = NC(=O)NCCC[C@H](N)C(=O)O; Ile(3ξ) = CCC(C)[C@H](N)C(=O)O; Thr(3ξ) = CC(O)[C@H](N)C(=O)O; 12Ado = NCCCCCCCCCCCC(=O)O; Carboxymethyl = O=C(O)C*; NMeA = CN[C@@H](C)C(=O)O; Orn = NCCC[C@H](N)C(=O)O; Aun = NCCCCCCCCCCC(=O)O; Dab = NCC[C@H](N)C(=O)O; AEEA = NCCOCCOCC(=O)O; Sar = CNCC(=O)O

These compounds were tested against T1, PD-1/PD-L1 interaction (PE-labeled human PD-L1-Ig binding to Jurkat cell line over-expressing human PD-1) (Homo sapiens, UniProt Q15116) (assay: Jurkat-PD-1 Cell Binding High-Content Screening Assay (CBA)). Conditions: Jurkat-hPD-1 cells, PE-labeled PD-L1-Ig 20 nM final; read-out: Jurkat HPD1 PDL1 IC50.
T1 construct: expressed in transfected cells; host or cells: Jurkat
How it was run: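 Read-out: high-content imaging of cell-bound PE fluorescence, with Hoechst 33342 nuclear counterstain after paraformaldehyde fixation. Before labeled ligand (20 nM final, 1 h) was added, compound sat on the cells for 2 h at 37 °C in DMEM/10% FCS.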

T1 sequence (Q15116 25-288): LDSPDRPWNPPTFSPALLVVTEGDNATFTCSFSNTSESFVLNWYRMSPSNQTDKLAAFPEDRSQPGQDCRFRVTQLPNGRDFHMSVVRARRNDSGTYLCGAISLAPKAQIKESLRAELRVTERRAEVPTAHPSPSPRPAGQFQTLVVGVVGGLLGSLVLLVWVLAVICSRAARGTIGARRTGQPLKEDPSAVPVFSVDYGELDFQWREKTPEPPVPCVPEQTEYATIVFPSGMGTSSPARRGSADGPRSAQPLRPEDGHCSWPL

IC50 [nM]	SMILES
12.4	CC(=O)NCCCC[C@@H]1NC(=O)[C@H](C(C)(C)O)NC(=O)[C@H](CC2CCCCC2)NC(=O)[C@H](CCN)NC(=O)[C@@H](CC(C)C)NC(=O)[C@H](C)N(C)C(=O)[C@H](CCCNC(N)=O)NC(=O)[C@H](Cc2ccc(-c3ccccc3)cc2)NC(=O)[C@H](Cc2ccc(C(=O)O)cc2)NC(=O)[C@H](Cc2cccc(C(F)(F)F)c2)NC(=O)[C@H](CC(=O)O)NC(=O)[C@H](Cc2ccc(OCC(=O)O)cc2)NC(=O)[C@H](CN2CCOCC2)NC(=O)CSC[C@@H](C(=O)N[C@@H](CCN)C(=O)NCCOCCOCC(=O)NC(CCC(=O)NCCOCCOCC(=O)NCCCCCCCCCCCCC(=O)O)C(=O)O)NC1=O (stereo partly drawn) [Example 1178] ({CH2CO}-[Ala(morpholin-4-yl)]Y(Carboxymethyl)D[Phe(3-CF3)][Phe(4-COOH)][Bip][Cit][NMeA][dL][Dab][Cha][Val(3-OH)]K(Ac)C[Dab][AEEA][ξγGlu][AEEA]-{NH(CH2)12COOH}; thioether N-14)
401	CC(C)C[C@H]1NC(=O)[C@H](C)N(C)C(=O)[C@H](Cc2ccc(OCC(=O)O)cc2)NC(=O)[C@H](Cc2ccc(-c3ccccc3)cc2)NC(=O)[C@H](Cc2ccc(OCC(=O)O)cc2)NC(=O)[C@H](Cc2c[nH]c3ccccc23)NC(=O)[C@H](CC(=O)O)NC(=O)[C@H](Cc2ccc(OCC(=O)O)cc2)NC(=O)[C@H]([C@@H](C)O)NC(=O)CSC[C@@H](C(=O)N[C@@H](CCCN)C(=O)NCCOCCOCC(=O)NCCCCCCCCCCC(=O)O)NC(=O)[C@H]([C@@H](C)O)NC(=O)[C@H](C(C)C)NC(=O)[C@H](CC2CCCCC2)NC(=O)[C@H](CC(N)=O)NC1=O [Example 1387] ({CH2CO}-TY(Carboxymethyl)DWY(Carboxymethyl)[Bip]Y(Carboxymethyl)[NMeA][dL]N[Cha]VTC[Orn][AEEA][Aun]-OH; thioether N-14)
25.1	Cc1cccc(C[C@@H]2NC(=O)[C@H](CC(=O)O)NC(=O)[C@H](Cc3ccc(OCC(=O)O)cc3)NC(=O)[C@H]([C@@H](C)O)NC(=O)CSC[C@@H](C(=O)N[C@@H](CCN)C(=O)NCCOCCOCC(=O)NCCCCCCCCCCC(=O)O)NC(=O)[C@H]([C@@H](C)O)NC(=O)[C@H](C(C)C)NC(=O)[C@H](CC3CCCCC3)NC(=O)[C@H](CC(N)=O)NC(=O)[C@@H](CC(C)C)NC(=O)[C@H](C)N(C)C(=O)[C@H](Cc3ccc(OCC(=O)O)cc3)NC(=O)[C@H](Cc3ccc(-c4ccccc4)cc3)NC(=O)[C@H](Cc3ccc(OCC(=O)O)cc3)NC2=O)c1 [Example 1362] ({CH2CO}-TY(Carboxymethyl)D[Phe(3-Me)]Y(Carboxymethyl)[Bip]Y(Carboxymethyl)[NMeA][dL]N[Cha]VTC[Dab][AEEA][Aun]-OH; thioether N-14)
20.2	CC[C@H](C)[C@@H]1NC(=O)[C@H](Cc2ccc(-c3ccccc3)cc2)NC(=O)[C@H](CC(C)C)NC(=O)[C@H](Cc2c[nH]c3ccccc23)NC(=O)[C@H](CC(=O)O)NC(=O)[C@H](Cc2ccc(C(=O)O)cc2)NC(=O)[C@H](Cc2ccc(OCC(=O)O)cc2)NC(=O)CSC[C@@H](C(=O)N[C@@H](Cc2c[nH]cn2)C(=O)NCCCCCCCCCCC(=O)O)NC(=O)[C@H](CO)NC(=O)[C@H](C(C)C)NC(=O)[C@H](CC2CCCCC2)NC(=O)[C@H](CCN)NC(=O)[C@@H](CC(C)C)NC(=O)[C@H](C)N(C)C1=O [Example 1075] ({CH2CO}-Y(Carboxymethyl)[Phe(4-COOH)]DWL[Bip]I[NMeA][dL][Dab][Cha]VSCH[Aun]-OH; thioether N-14)
32.3	CCC(C)[C@@H]1NC(=O)[C@H](Cc2ccc(-c3ccccc3)cc2)NC(=O)[C@H](C(C)C)NC(=O)[C@H](Cc2c[nH]c3ccccc23)NC(=O)[C@H](CC(=O)O)NC(=O)[C@H](Cc2ccc(OCC(=O)O)cc2)NC(=O)[C@H](C(C)O)NC(=O)CSC[C@@H](C(=O)N[C@@H](CCCN)C(=O)N[C@@H](CCC(=O)NCCCCCCCCCCCC(=O)O)C(=O)O)NC(=O)[C@H](C(C)O)NC(=O)[C@H](C(C)C)NC(=O)[C@H](CC2CCCCC2)NC(=O)[C@H](CCN)NC(=O)[C@@H](CC(C)C)NC(=O)[C@H](C)N(C)C1=O (stereo partly drawn) [Example 2417] ({CH2CO}-[Thr(3ξ)]Y(Carboxymethyl)DWV[Bip][Ile(3ξ)][NMeA][dL][Dab][Cha]V[Thr(3ξ)]C[Orn][γGlu][12Ado]-OH; thioether N-14)
7.6	CC(C)C[C@@H]1NC(=O)[C@H](Cc2c[nH]c3ccccc23)NC(=O)[C@H](CC(=O)O)NC(=O)[C@H](Cc2ccc(C(=O)O)cc2)NC(=O)[C@H](Cc2ccc(OCC(=O)O)cc2)NC(=O)CSC[C@@H](C(=O)N[C@@H](CCN)C(=O)NCCOCCOCC(=O)NCCCCCCCCCCC(=O)O)NC(=O)[C@H](CCCCN)NC(=O)[C@H](C(C)C)NC(=O)[C@H](CC2CCCCC2)NC(=O)[C@H](CCN)NC(=O)[C@@H](CC(C)C)NC(=O)[C@H](C)N(C)C(=O)[C@H](C(C)C)NC(=O)[C@H](Cc2ccc(-c3ccccc3)cc2)NC1=O [Example 2192] ({CH2CO}-Y(Carboxymethyl)[Phe(4-COOH)]DWL[Bip]V[NMeA][dL][Dab][Cha]VKC[Dab][AEEA][Aun]-OH; thioether N-14)
38.6	CC[C@@H](C)[C@@H]1NC(=O)[C@H](Cc2ccc(-c3ccccc3)cc2)NC(=O)[C@H](C(C)C)NC(=O)[C@H](Cc2c[nH]c3ccccc23)NC(=O)[C@H](CC(=O)O)NC(=O)[C@H](Cc2ccc(O)cc2)NC(=O)[C@H](CCCNC(N)=O)NC(=O)CSC[C@@H](C(=O)N[C@H](CCCCN)C(=O)NCCOCCOCC(=O)NCCCCCCCCCCC(=O)O)NC(=O)[C@H](CO)NC(=O)[C@H](C(C)C)NC(=O)[C@H](CC2CCCCC2)NC(=O)[C@H](CCN)NC(=O)[C@@H](CC(C)C)NC(=O)[C@H](C)N(C)C1=O [Example 2027] ({CH2CO}-[Cit]YDWV[Bip][aIle][NMeA][dL][Dab][Cha]VSC[dK][AEEA][Aun]-OH; thioether N-14)
21.9	Cc1cccc(C[C@@H]2NC(=O)[C@H](CC(=O)O)NC(=O)[C@H](Cc3ccc(OCC(=O)O)cc3)NC(=O)[C@H](C(C)O)NC(=O)CSC[C@@H](C(=O)N(C)CCOCCOCC(=O)NCCCCCCCCCCC(=O)O)NC(=O)[C@H](C(C)O)NC(=O)[C@H](C(C)C)NC(=O)[C@H](CC3CCCCC3)NC(=O)[C@H](CCN)NC(=O)[C@@H](CC(C)C)NC(=O)[C@H](C)N(C)C(=O)[C@H](C(C)C)NC(=O)[C@H](Cc3ccc(-c4ccccc4)cc3)NC(=O)[C@H](C(C)C)NC2=O)c1 (stereo partly drawn) [Example 2363] ({CH2CO}-[Thr(3ξ)]Y(Carboxymethyl)D[Phe(3-Me)]V[Bip]V[NMeA][dL][Dab][Cha]V[Thr(3ξ)]C[NMeAEEA][Aun]-OH; thioether N-14)
334	Cc1cccc(C[C@@H]2NC(=O)[C@H](CC(=O)O)NC(=O)[C@H](Cc3ccc(OCC(=O)O)cc3)NC(=O)[C@H](C(C)O)NC(=O)CSC[C@@H](C(=O)N(C)CC(=O)NCCCCCCCCCCC(=O)O)NC(=O)[C@H](CCC(=O)O)NC(=O)[C@H](C(C)C)NC(=O)[C@H](CC3CCCCC3)NC(=O)[C@H](CCN)NC(=O)[C@@H](CC(C)C)NC(=O)[C@H](C)N(C)C(=O)[C@H](C(C)C)NC(=O)[C@H](Cc3ccc(-c4ccccc4)cc3)NC(=O)[C@H](Cc3ccc(O)cc3)NC2=O)c1 (stereo partly drawn) [Example 2263] ({CH2CO}-[Thr(3ξ)]Y(Carboxymethyl)D[Phe(3-Me)]Y[Bip]V[NMeA][dL][Dab][Cha]VEC[Sar][Aun]-OH; thioether N-14)

Same assay, conditions: PE-labeled PD-L1-Ig 20 nM final, Jurkat-hPD-1 cells; read-out: Jurkat HPD1 PDL1 IC50

IC50 [nM]	SMILES
5.7	CC(=O)NCCCC[C@@H]1NC(=O)[C@H](C(C)(C)O)NC(=O)[C@H](CC2CCCCC2)NC(=O)[C@H](CCN)NC(=O)[C@@H](CC(C)C)NC(=O)[C@H](C)N(C)C(=O)[C@H](Cc2ccc(C(F)(F)F)cc2)NC(=O)[C@H](Cc2ccc(-c3ccccc3)cc2)NC(=O)[C@H](Cc2ccc(C(=O)O)cc2)NC(=O)[C@H](Cc2cccc(C)c2)NC(=O)[C@H](CC(=O)O)NC(=O)[C@H](Cc2ccc(OCC(=O)O)cc2)NC(=O)[C@H](Cc2ccc(OCC(=O)O)cc2)NC(=O)CSC[C@@H](C(=O)N[C@@H](CCN)C(=O)NCCOCCOCC(=O)NCCCCCCCCCCC(=O)O)NC1=O [Example 2594] ({CH2CO}-Y(Carboxymethyl)Y(Carboxymethyl)D[Phe(3-Me)][Phe(4-COOH)][Bip][Phe(4-CF3)][NMeA][dL][Dab][Cha][Val(3-OH)]K(Ac)C[Dab][AEEA][Aun]-OH; thioether N-14)
69.3	Cc1cccc(C[C@@H]2NC(=O)[C@H](CC(=O)O)NC(=O)[C@H](Cc3ccc(C(=O)O)cc3)NC(=O)[C@H](Cc3ccncc3)NC(=O)CSC[C@@H](C(=O)NCCOCCOCC(=O)NCCCCCCCCCCC(=O)O)NC(=O)[C@H](CO)NC(=O)[C@H](C(C)(C)O)NC(=O)[C@H](CC3CCCCC3)NC(=O)[C@H](CCN)NC(=O)[C@@H](CC(C)C)NC(=O)[C@H](C)N(C)C(=O)[C@H](Cc3ccc(OCC(=O)O)cc3)NC(=O)[C@H](Cc3ccc(-c4ccccc4)cc3)NC(=O)[C@H](Cc3ccc(OCC(=O)O)cc3)NC2=O)c1 [Example 2463] ({CH2CO}-[4Pal][Phe(4-COOH)]D[Phe(3-Me)]Y(Carboxymethyl)[Bip]Y(Carboxymethyl)[NMeA][dL][Dab][Cha][Val(3-OH)]SC[AEEA][Aun]-OH; thioether N-14)
28.6	Cc1cccc(C[C@@H]2NC(=O)[C@H](CC(=O)O)NC(=O)[C@H](Cc3ccc(OCC(=O)O)cc3)NC(=O)[C@H](Cc3ccc(F)cc3)NC(=O)CSC[C@@H](C(=O)N[C@@H](CCN)C(=O)NCCOCCOCC(=O)NCCCCCCCCCCC(=O)O)NC(=O)[C@H](CC(=O)O)NC(=O)[C@H](C(C)C)NC(=O)[C@H](CC3CCCCC3)NC(=O)[C@H](CCN)NC(=O)[C@@H](CC(C)C)NC(=O)[C@H](C)N(C)C(=O)[C@H](Cc3ccc(OCC(=O)O)cc3)NC(=O)[C@H](Cc3ccc(-c4ccccc4)cc3)NC(=O)[C@H](Cc3ccc(OCC(=O)O)cc3)NC2=O)c1 [Example 2559] ({CH2CO}-[Phe(4-F)]Y(Carboxymethyl)D[Phe(3-Me)]Y(Carboxymethyl)[Bip]Y(Carboxymethyl)[NMeA][dL][Dab][Cha]VDC[Dab][AEEA][Aun]-OH; thioether N-14)
